Laboratory results as given in publication PMC10535219, “Discovery and Potential Utility of a Novel Non-Invasive Ocular Delivery Platform” (Pharmaceutics, 2023).
Read-outs that look alike come from different tables or passages of the source.

Assay: Biodisposition of JV-DE1 and JV-MD2 delivered via NIODP (periorbital skin) in non-human primates
Type: in vivo, cynomolgus monkeys
Details: for % Administered Dose, Retina: endogenous DHA subtracted; for Cmax / concentration at 0.5 h / concentration at 24 h / concentration at 3 h / concentration at 6 h: cynomolgus monkey, topical
Procedure: All experiments were performed at Medicilon. […] A pen brush was used to dose each formulation with three to four circular motions for even distribution. The doses of the test articles were selected based on their solubility/concentration with the maximum deliverable volume on the periorbital skin of the animals. The administered dose was calculated by the weight difference of the pen brush before and after administration. Animals were restrained from eye rubbing in restraint chairs for 2 h after dosing, with access to food and drink. A blood sample was collected from one of the study animals at pre-dosing. For every time point of 0.5, 3, 6, and 24 h post-dose, one animal was euthanized and the ocular tissues (upper eyelid, cornea, retina, and vitreous humor) of both eyes were collected. Plasma samples were collected before each euthanization.
For the convenience of tissue processing and sample extraction, only upper eyelids were collected to represent the entirety of the periorbital tissue. Ocular tissues were homogenized by adding a 9-fold volume of 50% methanol/H2O per gram of tissue. For the LC-MS/MS sample preparation, a 50 μL aliquot of plasma, aqueous humor, vitreous humor, or tissue homogenate was thoroughly mixed with a 250 μL extraction solution of CHCl3/EtOH (1:1); then, a 210 μL supernatant of the samples was transferred to a 96-well plate after centrifugation. The samples were evaporated in nitrogen gas (N2) until dried. Each sample was redissolved in 200 μL MeOH, of which 2 µL was injected for the LC-MS/MS analysis.
The LC system was the same as that described in Section 2. The MS analysis was performed using a Triple Quad 5500 with an ESI ion source, and the data acquisition and control system were Analyst 1.6.3 software from Applied Biosystems/MDS Sciex.
The LC/MS conditions for JV-DE1 are described in Supplementary Table S2. The LC conditions were as follows: ACQUITY UPLC ® BEH C18 1.7 μm, 2.1 mm × 50 mm; the mobile phase Column A, 0.1% formic acid in water; and Column B, 0.1% formic acid in acetonitrile. The flow rate was 0.6 ml/min, the column temperature was 50 °C, and the injection volume was 2 µL. The MS conditions were as follows: scan type, positive MRM; ion source, turbo spray; ionization model, ESI; nebulizer gas 1, 55 psi; gas 2, 55 psi; curtain gas, 40 psi; CAD, 10; ionspray voltage, 5500 V; and temperature, 550 °C.
The LC/MS conditions for JV-MD2 (DHA) are described in Supplementary Table S3. The LC conditions were as follows: ACQUITY UPLC® BEH C18 1.7 μm, 2.1 mm × 50 mm; the mobile phase Column A, […] NH4AC in H2O; and Column B, CAN. The flow rate was 0.5 mL/min, the column temperature was 40 °C, and the injection volume was 4 µL. The MS conditions were as follows: scan type, negative MRM; ion source, turbo spray; ionization model, ESI; nebulizer gas 1, 55 psi; gas 2, 55 psi; curtain gas, 40 psi; CAD, 9; ionspray voltage, 5500 V; and temperature, 550 °C.

[1] = JV-MD2, monkey, NIODP OS, 6568 μg/eye, 0.5 h
[2] = JV-MD2, monkey, NIODP OS, 6747 μg/eye, 24 h
[3] = JV-MD2, monkey, NIODP OS, 6768 μg/eye, 3 h
[4] = JV-MD2, monkey, NIODP OS, 7018 μg/eye, 6 h
[5] = JV-MD2, monkey, NIODP, within 30 min of dosing

- concentration in vitreous humor (JV-MD2, monkey, NIODP 6775 µg/eye, all timepoints except 24 h, LLOQ 0.5 µg/mL): below BLQ
- % Administered Dose, Cornea [1]: 0.0283%
- % Administered Dose, Eyelid/periorbital skin [1]: 0.4288%
- % Administered Dose, Vitreous humor [1]: 0.0000%
- % Administered Dose, Retina [1]: 0.0343%
- % Administered Dose, Cornea [2]: 0.0173%
- % Administered Dose, Eyelid/periorbital skin [2]: 0.0197%
- % Administered Dose, Vitreous humor [2]: 0.0236%
- % Administered Dose, Retina [2]: 0.0175%
- % Administered Dose, Cornea [3]: 0.0109%
- % Administered Dose, Eyelid/periorbital skin [3]: 0.3844%
- % Administered Dose, Vitreous humor [3]: 0.0000%
- % Administered Dose, Retina [3]: 0.0264%
- % Administered Dose, Cornea [4]: 0.0149%
- % Administered Dose, Eyelid/periorbital skin [4]: 0.0149%
- % Administered Dose, Vitreous humor [4]: 0.0000%
- % Administered Dose, Retina [4]: 0.0228%
- maximum percentage of the administered dose, cornea [5]: 0.0283%
- maximum percentage of the administered dose, eyelid/periorbital skin [5]: 0.4288%
- maximum percentage of the administered dose, retina [5]: 0.0343%
- Cmax (cornea, JV-MD2, monkey, single dose about 7 mg via NIODP, read-out: Cmax in cornea): 66000 ng/g
- Cmax (retina, JV-MD2, NHP, about 7 mg/eye via NIODP, read-out: retinal Cmax): ~338 µM
- Cmax (retina, JV-MD2, monkey, single dose about 7 mg (6775 µg/eye) via NIODP, endogenous level 17 µg/g, read-out: Cmax in retina): 111000 ng/g
- concentration at 0.5 h (cynomolgus, cornea of the dosed left eye (OS), JV-MD2, monkey, NIODP OS, 6568 μg/eye, 0.5 h, endogenous BLQ, read-out: Drug in OS Tissues, Cornea): 66000 ng/g
- concentration at 24 h (cynomolgus, cornea of the dosed left eye (OS), JV-MD2, monkey, NIODP OS, 6747 μg/eye, 24 h, endogenous BLQ, read-out: Drug in OS Tissues, Cornea): 26000 ng/g
- concentration at 3 h (cynomolgus, cornea of the dosed left eye (OS), JV-MD2, monkey, NIODP OS, 6768 μg/eye, 3 h, endogenous BLQ, read-out: Drug in OS Tissues, Cornea): 22000 ng/g
- concentration at 6 h (cynomolgus, cornea of the dosed left eye (OS), JV-MD2, monkey, NIODP OS, 7018 μg/eye, 6 h, endogenous BLQ, read-out: Drug in OS Tissues, Cornea): 22000 ng/g
- concentration at 0.5 h (cynomolgus, plasma, JV-MD2 21.5% w/w, monkey, NIODP periorbital skin OS, 6568 μg/eye, 0.5 h, pre-dose baseline 2, read-out: Drug in plasma): 2000 ng/mL
- concentration at 24 h (cynomolgus, plasma, JV-MD2 21.5% w/w, monkey, NIODP periorbital skin OS, 6747 μg/eye, 24 h, pre-dose baseline 2, read-out: Drug in plasma): 1000 ng/mL
- concentration at 3 h (cynomolgus, plasma, JV-MD2 21.5% w/w, monkey, NIODP periorbital skin OS, 6768 μg/eye, 3 h, pre-dose baseline 2, read-out: Drug in plasma): 3000 ng/mL
- concentration at 6 h (cynomolgus, plasma, JV-MD2 21.5% w/w, monkey, NIODP periorbital skin OS, 7018 μg/eye, 6 h, pre-dose baseline 2, read-out: Drug in plasma): 2000 ng/mL
- Cmax (cynomolgus, retina, 6775 µg per eye, JV-MD2, NHP, about 7 mg/eye via NIODP, read-out: retinal Cmax): 338 µM
- concentration at 0.5 h (cynomolgus, retina, JV-MD2, monkey, NIODP OS, 6568 μg/eye, 0.5 h, endogenous DHA 17 µg/g, read-out: Drug in OS Tissues, Retina): 111000 ng/g
- concentration at 24 h (cynomolgus, retina, JV-MD2, monkey, NIODP OS, 6747 μg/eye, 24 h, endogenous DHA 17 µg/g, read-out: Drug in OS Tissues, Retina): 47000 ng/g
- concentration at 3 h (cynomolgus, retina, JV-MD2, monkey, NIODP OS, 6768 μg/eye, 3 h, endogenous DHA 17 µg/g, read-out: Drug in OS Tissues, Retina): 67000 ng/g
- concentration at 6 h (cynomolgus, retina, JV-MD2, monkey, NIODP OS, 7018 μg/eye, 6 h, endogenous DHA 17 µg/g, read-out: Drug in OS Tissues, Retina): 79000 ng/g
- concentration at 0.5 h (cynomolgus, upper eyelid (periorbital skin) of the dosed left eye (OS), JV-MD2, monkey, NIODP OS, 6568 μg/eye, 0.5 h, endogenous BLQ, read-out: Drug in OS Tissues, Eyelid/periorbital skin): 381000 ng/g
- concentration at 24 h (cynomolgus, upper eyelid (periorbital skin) of the dosed left eye (OS), JV-MD2, monkey, NIODP OS, 6747 μg/eye, 24 h, endogenous BLQ, read-out: Drug in OS Tissues, Eyelid/periorbital skin): 16000 ng/g
- concentration at 3 h (cynomolgus, upper eyelid (periorbital skin) of the dosed left eye (OS), JV-MD2, monkey, NIODP OS, 6768 μg/eye, 3 h, endogenous BLQ, read-out: Drug in OS Tissues, Eyelid/periorbital skin): 420000 ng/g
- concentration at 6 h (cynomolgus, upper eyelid (periorbital skin) of the dosed left eye (OS), JV-MD2, monkey, NIODP OS, 7018 μg/eye, 6 h, endogenous BLQ, read-out: Drug in OS Tissues, Eyelid/periorbital skin): 11000 ng/g
- concentration at 24 h (cynomolgus, vitreous humor, 6775 µg per eye, JV-MD2, monkey, NIODP 6775 µg/eye, 24 h post-dose, read-out: concentration in vitreous humor): 2000 ng/mL
- concentration at 0.5 h (cynomolgus, vitreous humor, JV-MD2, monkey, NIODP OS, 6568 μg/eye, 0.5 h, BLQ given a value of 0, LLOQ 0.5 µg/mL, read-out: Drug in OS Tissues, Vitreous humor): 0 ng/g
- concentration at 24 h (cynomolgus, vitreous humor, JV-MD2, monkey, NIODP OS, 6747 μg/eye, 24 h, read-out: Drug in OS Tissues, Vitreous humor): 2000 ng/g
- concentration at 3 h (cynomolgus, vitreous humor, JV-MD2, monkey, NIODP OS, 6768 μg/eye, 3 h, BLQ given a value of 0, LLOQ 0.5 µg/mL, read-out: Drug in OS Tissues, Vitreous humor): 0 ng/g
- concentration at 6 h (cynomolgus, vitreous humor, JV-MD2, monkey, NIODP OS, 7018 μg/eye, 6 h, BLQ given a value of 0, LLOQ 0.5 µg/mL, read-out: Drug in OS Tissues, Vitreous humor): 0 ng/g
SMILES: CC/C=C\C/C=C\C/C=C\C/C=C\C/C=C\C/C=C\CCC(=O)O [JV-MD2, cis-4,7,10,13,16,19-docosahexaenoic acid]
